Measurements reported in patent US11578084B2, “Condensed ring compounds having dopamine D3 receptor antagonistic effect” (Shionogi & Co., Ltd., priority 2018, dated 2023).
pKi: −log10 of the molar value. Read-outs that look alike come from different tables or passages of the source.

Columns and labels:
[1] = molecular target: human recombinant dopamine D3 receptor (Homo sapiens (Human), UniProt P35462); assay: Test of binding inhibition for dopamine D3 receptor ([3H]-Methylspiperone SPA); settings: Jump-In HEK cell membranes, 2 nM [3H]-Methylspiperone, 120 min at 25° C.; read-out: hD3_Ki
Sequence of human recombinant dopamine D3 receptor (P35462 whole entry): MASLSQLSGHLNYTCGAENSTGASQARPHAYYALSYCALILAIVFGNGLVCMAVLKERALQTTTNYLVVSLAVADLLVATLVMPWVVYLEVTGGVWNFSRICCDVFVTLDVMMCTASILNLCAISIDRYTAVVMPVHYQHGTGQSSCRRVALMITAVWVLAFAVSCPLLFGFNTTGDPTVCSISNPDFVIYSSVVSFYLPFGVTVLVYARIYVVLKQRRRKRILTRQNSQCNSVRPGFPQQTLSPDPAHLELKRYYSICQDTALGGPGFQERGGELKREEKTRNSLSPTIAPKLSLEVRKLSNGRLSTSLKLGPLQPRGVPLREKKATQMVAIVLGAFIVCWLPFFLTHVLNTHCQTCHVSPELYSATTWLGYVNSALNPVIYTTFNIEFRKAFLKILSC
Description: (§1) (Experimental Conditions)
Cell membranes: Jump-In HEK cell membranes expressing human recombinant dopamine D3 receptor (4 μg/well)
(§2) Non-specific ligand: (final concentration) 10 μM Butaclamol [(+)-Butaclamol Hydrochloride, D033, Sigma]
(§3) SPA beads solution: SPA beads [WGA PVT SPA Scintillation Beads, RPNQ0001 (500 mg), RPNQ0060 (2 g), PerkinElmer] (0.2 mg/well)
(§4) Incubation time and temperature: 120 min at 25° C.
(§5) Butaclamol or the compounds of the present invention were weighed and DMSO was added to make a 10 mM solution. This solution was diluted to each concentration.
[^3H]-Methylspiperone was weighed and the buffer solution was added to make a 6 nM solution.
(§6) SPA beads were weighed and stirred in water to make a 50 mg/mL solution. Using this solution, a mixture with the cell membranes was prepared.
(§7) Jump-In HEK Cell membranes (final reaction amount: 4 μg protein/well), the SPA beads solution (final reaction amount: 0.2 mg/well) and the buffer solution were mixed and the mixed solution was left still for 1 hour or more at 4° C. Then, 50 μL of the mixture was added to each well of the plate. In addition, 25 μL of 6 nM [^3H]-Methylspiperone (final concentration: 2 nM) was added to each well. […] Non-specific binding was calculated based on the radioactivity of [^3H]-Methylspiperone in the presence of 10 μM non-labeled Butaclamol. The total binding was calculated using the radioactivity of [H]-Methylspiperone in the absence of the compounds of the present invention (vehicle). The Ki values were calculated from dose-response curves.
(§8) Binding activities of the compounds of the present invention were calculated from the following Binding Inhibition Rate (%): Inhibition Rate (%)=[1−(c−a)/(b−a)]×100 • a: Average cpm of non-specific binding • b: Average cpm of total binding • c: Cpm in the presence of each test compound

hERG channel (IKr) = hERG channel (IKr) (Homo sapiens (Human), UniProt Q12809); assay: hERG test (whole cell patch clamp, IKr); type: cell-based; settings: human, CHO cells expressing hERG channel, pH 7.4, 3 μM, tail peak current
Sequence of hERG channel (IKr) (Q12809 whole entry): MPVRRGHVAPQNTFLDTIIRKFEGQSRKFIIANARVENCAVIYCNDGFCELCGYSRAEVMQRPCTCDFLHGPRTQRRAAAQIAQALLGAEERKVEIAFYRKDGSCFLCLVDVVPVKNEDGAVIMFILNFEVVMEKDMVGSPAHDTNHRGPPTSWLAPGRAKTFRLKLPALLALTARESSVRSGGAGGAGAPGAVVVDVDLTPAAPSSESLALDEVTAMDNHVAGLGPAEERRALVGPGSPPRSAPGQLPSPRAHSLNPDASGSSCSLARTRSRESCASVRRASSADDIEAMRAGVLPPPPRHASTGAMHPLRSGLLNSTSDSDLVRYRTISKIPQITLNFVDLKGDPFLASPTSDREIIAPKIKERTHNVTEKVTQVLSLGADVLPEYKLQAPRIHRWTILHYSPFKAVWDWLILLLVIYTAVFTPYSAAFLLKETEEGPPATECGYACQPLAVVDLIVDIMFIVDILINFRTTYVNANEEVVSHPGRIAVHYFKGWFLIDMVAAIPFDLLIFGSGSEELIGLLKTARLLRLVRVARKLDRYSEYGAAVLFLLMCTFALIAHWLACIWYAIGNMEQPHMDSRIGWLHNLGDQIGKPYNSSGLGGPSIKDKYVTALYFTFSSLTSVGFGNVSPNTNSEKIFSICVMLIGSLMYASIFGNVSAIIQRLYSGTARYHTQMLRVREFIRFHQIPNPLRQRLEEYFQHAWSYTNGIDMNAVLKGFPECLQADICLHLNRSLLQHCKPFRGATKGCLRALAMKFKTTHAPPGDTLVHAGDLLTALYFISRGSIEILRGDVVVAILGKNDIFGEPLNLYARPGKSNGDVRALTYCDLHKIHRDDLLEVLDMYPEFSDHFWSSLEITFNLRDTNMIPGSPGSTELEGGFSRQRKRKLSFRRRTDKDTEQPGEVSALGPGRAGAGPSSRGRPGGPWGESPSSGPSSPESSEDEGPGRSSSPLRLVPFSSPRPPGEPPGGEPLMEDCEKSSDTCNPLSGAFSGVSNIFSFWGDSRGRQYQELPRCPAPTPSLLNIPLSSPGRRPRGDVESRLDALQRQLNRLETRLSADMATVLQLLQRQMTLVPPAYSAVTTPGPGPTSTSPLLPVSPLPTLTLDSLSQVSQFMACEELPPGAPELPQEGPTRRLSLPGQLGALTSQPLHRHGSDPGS
From the text: Test Example 10: hERG Test
For the purpose of assessing risk of an electrocardiogram QT interval prolongation of the compound of the present invention, effects of the compound of the present invention on delayed rectifier K+ current (IKr), which plays an important role in the ventricular repolarization process, was studied using CHO cells expressing human ether-a-go-go related gene (hERG) channel.
After a cell was retained at a membrane potential of −80 mV by whole cell patch clamp method using an automated patch clamp system (QPatch; Sophion Bioscience A/S) and gave a leak potential of −50 mV, IKr induced by depolarization pulse stimulation at +20 mV for 2 seconds and, further, repolarization pulse stimulation at −50 mV for 2 seconds, was recorded. After the generated current was stabilized, extracellular solution (NaCl: 145 mmol/L, KCl: 4 mmol/L, CaCl2): 2 mmol/L, MgCl2: 1 mmol/L, glucose: 10 mmol/L, HEPES (4-(2-hydroxyethyl)-1-piperazineethanesulfonic acid): 10 mmol/L, pH=7.4), in which the compound of the present invention had been dissolved at an objective concentration in the extracellular solution, was applied to the cell at room temperature for 7 minutes or more. From the recording IKr, an absolute value of the tail peak current was measured based on the current value at the resting membrane potential using analysis software (QPatch Assay software; Sophion Bioscience A/S). Further, the % inhibition of tail peak current for the compound of the present invention relative to the tail peak current after application of the solution (0.1% dimethyl sulfoxide solution) was calculated to assess influence of the compound of the present invention on IKr.

[2] = molecular target: human recombinant dopamine D2 receptor (Homo sapiens (Human), UniProt P14416); assay: Test of binding inhibition for dopamine D2 receptor ([3H]-Methylspiperone SPA); settings: Jump-In HEK cell membranes, read-out: hD2_Ki
Sequence of human recombinant dopamine D2 receptor (P14416 whole entry): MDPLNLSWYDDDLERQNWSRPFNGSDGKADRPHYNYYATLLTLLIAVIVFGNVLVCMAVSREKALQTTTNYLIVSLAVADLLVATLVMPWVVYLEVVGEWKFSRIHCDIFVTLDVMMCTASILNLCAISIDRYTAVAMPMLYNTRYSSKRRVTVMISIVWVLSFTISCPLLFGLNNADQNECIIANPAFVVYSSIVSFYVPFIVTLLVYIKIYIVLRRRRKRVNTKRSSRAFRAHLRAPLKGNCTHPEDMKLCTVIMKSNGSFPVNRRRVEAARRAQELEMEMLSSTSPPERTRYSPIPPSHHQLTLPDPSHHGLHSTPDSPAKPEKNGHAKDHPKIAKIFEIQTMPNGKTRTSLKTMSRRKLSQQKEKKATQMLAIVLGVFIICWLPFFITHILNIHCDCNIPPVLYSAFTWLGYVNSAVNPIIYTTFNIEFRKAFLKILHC
Description: as §1
Cell membranes: Jump-In HEK cell membranes expressing human recombinant dopamine D2 receptor (2 μg/well)
as §2, §3, §4, §5, §6
as §7, with “amount: 2” for “amount: 4”, “were mixed,” for “were mixed”, “plate.” for “plate. In addition, 25 μL of 6 nM [^3H]-Methylspiperone (final concentration: 2 nM) was added to each well.”, “of [^3H]-Methylspiperone” for “of [H]-Methylspiperone”, “invention (Vehicle).” for “invention (vehicle).”
as §8

Compound | pKi [1] | inhibition at 3 µM (hERG channel (IKr)) [%] | pKi ([2]; 1.2 nM [3H]-Methylspiperone, 120 min at 25° C.) | pKi ([2]; [3H]-Methylspiperone 1.2 nM)
COC(CN1CCc2ccc(OCC(F)(F)F)nc2CC1)[C@H]1CC[C@H](NC(=O)Cc2cnc(C)o2)CC1 (single isomer, unassigned) [Example I-045] | 9.09 | 18.3 | 5.77 | –
Cc1ncc(CC(=O)N[C@H]2CC[C@H](CCN3CCc4sc(OC5CC(F)(F)C5)nc4C3)CC2)o1 [Example I-002] | 9.33 | 30.3 | – | –
Cc1nc(CC(=O)N[C@H]2CC[C@H](CCN3CCc4ccc(CCC(F)(F)F)nc4CC3)CC2)no1 [I′-11] | 9.74 | – | – | 5.92
Cc1nnc(CC(=O)N[C@H]2CC[C@H](CCN3CCc4ccc(CCC(F)(F)F)nc4CC3)CC2)s1 [I′-12] | 9.54 | – | – | 6.09
Cc1cnc(OCC(=O)N[C@H]2CC[C@H](CCN3CCc4ccc(CCC(F)(F)F)nc4CC3)CC2)cn1 [I′-13] | 9.37 | – | – | 6.04
Cc1nc(CC(=O)N[C@H]2CC[C@H](CCN3CCc4ccc(CCC(F)(F)F)nc4CC3)CC2)nn1C [I′-14] | 9.68 | – | – | < 5.64
Cc1nc(CC(=O)N[C@H]2CC[C@H](CCN3CCc4ccc(CCC(F)(F)F)nc4CC3)CC2)n(C)n1 [I′-15] | 8.85 | – | – | 5.77
Cc1ncc(CC(=O)N[C@H]2CC[C@H](CCN3CCc4ccc(CCC(F)(F)F)nc4CC3)CC2)cn1 [I′-16] | 9.44 | – | – | 5.74
Cc1cc(CC(=O)N[C@H]2CC[C@H](CCN3CCc4ccc(CCC(F)(F)F)nc4CC3)CC2)on1 [I′-17] | 9.82 | – | – | < 5.64
Cn1cc(CC(=O)N[C@H]2CC[C@H](CCN3CCc4ccc(CCC(F)(F)F)nc4CC3)CC2)c(F)n1 [I′-18] | 9.42 | – | – | 6.00
Cn1ncc(CC(=O)N[C@H]2CC[C@H](CCN3CCc4ccc(CCC(F)(F)F)nc4CC3)CC2)c1F [I′-19] | 9.44 | – | – | 5.96
Cc1ncc(/C=C/C(=O)N[C@H]2CC[C@H](CCN3CCc4ccc(CCC(F)(F)F)nc4CC3)CC2)cn1 [I′-20] | 9.42 | – | – | 6.59
Cc1cc(CC(=O)N[C@H]2CC[C@H](CCN3CCc4ccc(CCC(F)(F)F)nc4CC3)CC2)no1 [I′-21] | 9.00 | – | – | < 5.64
Cn1ncc(CC(=O)N[C@H]2CC[C@H](CCN3CCc4nc(OCC(F)(F)F)sc4CC3)CC2)c1F [I′-22] | 10.00 | – | – | 5.70
Cn1ncc(CC(=O)N[C@H]2CC[C@](F)(CCN3CCc4nc(OCC(F)(F)F)sc4CC3)CC2)c1F [I′-23] | 9.55 | – | – | < 5.66
Cn1cc(CC(=O)N[C@H]2CC[C@H](CCN3CCc4nc(OCC(F)(F)F)sc4CC3)CC2)c(F)n1 [I′-24] | 9.77 | – | – | 6.20
Cn1cc(CC(=O)N[C@H]2CC[C@](F)(CCN3CCc4nc(OCC(F)(F)F)sc4CC3)CC2)c(F)n1 [I′-25] | 9.54 | – | – | 6.14
Cn1ncc(CC(=O)N[C@H]2CC[C@H](CCN3CCc4nc(OCC(C)(F)F)sc4CC3)CC2)c1F [I′-26] | 9.77 | – | – | 6.06
Cn1cc(CC(=O)N[C@H]2CC[C@H](CCN3CCc4nc(OCC(C)(F)F)sc4CC3)CC2)c(F)n1 [I′-27] | 10.05 | – | – | < 5.66
Cn1ncc(CC(=O)N[C@H]2CC[C@H](CCN3CCc4nc(OCC(F)F)sc4CC3)CC2)c1F [I′-28] | 9.68 | – | – | 5.82
Cn1ncc(CC(=O)N[C@H]2CC[C@](F)(CCN3CCc4nc(OCC(F)F)sc4CC3)CC2)c1F [I′-29] | 8.51 | – | – | < 5.66
Cn1cc(CC(=O)N[C@H]2CC[C@H](CCN3CCc4nc(OCC(F)F)sc4CC3)CC2)c(F)n1 [I′-30] | 9.72 | – | – | 5.80

Compound | pKi [1] | inhibition at 3 µM (hERG channel (IKr)) [%] | pKi ([2]; 1.2 nM [3H]-Methylspiperone, 120 min at 25° C.) | pKi ([2]; [3H]-Methylspiperone 1.2 nM)
Cn1cc(CC(=O)N[C@H]2CC[C@](F)(CCN3CCc4nc(OCC(F)F)sc4CC3)CC2)c(F)n1 [I′-31] | 9.24 | – | – | 5.89
Cn1cc(CC(=O)N[C@H]2CC[C@H](CCN3CCc4ccc(OCC(F)F)nc4CC3)CC2)c(F)n1 [I′-32] | 9.80 | – | – | 5.92
Cn1ncc(CC(=O)N[C@H]2CC[C@H](CCN3CCc4ccc(OCC(F)F)nc4CC3)CC2)c1F [I′-33] | 9.07 | – | – | 5.80
Cn1ncc(CC(=O)N[C@H]2CC[C@](F)(CCN3CCc4ccc(OCC(F)F)nc4CC3)CC2)c1F [I′-35] | 9.39 | – | – | 5.74
Cn1ncc(CC(=O)N[C@H]2CC[C@H](CCN3CCc4nc(OCC(F)(F)F)sc4CC3)CC2)n1 [I′-36] | 10.15 | – | – | 6.13
Cn1ncc(CC(=O)N[C@H]2CC[C@H](CCN3CCc4nc(OCC(F)F)sc4CC3)CC2)n1 [I′-40] | 9.72 | – | – | 5.72
Cn1ncc(CC(=O)N[C@H]2CC[C@H](CCN3CCc4ccc(OCC(C)(F)F)nc4CC3)CC2)n1 [I′-42] | 10.80 | – | – | 6.30
Cn1ncc(CC(=O)N[C@H]2CC[C@](F)(CCN3CCc4ccc(OCC(F)(F)F)nc4CC3)CC2)n1 [I′-43] | 10.11 | – | – | 6.46
Cn1ncc(CC(=O)N[C@H]2CC[C@H](CCN3CCc4ccc(OCC(F)F)nc4CC3)CC2)n1 [I′-44] | 9.96 | – | – | 5.70
Cc1ncc(/C=C/C(=O)N[C@H]2CC[C@H](CCN3CCc4sc(C5CC(F)(F)C5)nc4C3)CC2)cn1 [I′-45] | 9.96 | – | – | 6.68
Cc1ncc(OCC(=O)N[C@H]2CC[C@](F)(CCN3CCc4ccc(OCC(C)(F)F)nc4CC3)CC2)cn1 [I′-46] | 9.48 | – | – | 6.59
Cc1ncc(/C=C/C(=O)N[C@H]2CC[C@](F)(CCN3CCc4ccc(OCC(C)(F)F)nc4CC3)CC2)cn1 [I′-47] | 10.09 | – | – | 7.39
Cc1ncc(/C=C/C(=O)N[C@H]2CC[C@](F)(CCN3CCc4nc(OCC(F)(F)F)sc4CC3)CC2)cn1 [I′-48] | 9.57 | – | – | < 5.66
Cn1c(C(=O)N[C@H]2CC[C@](F)(CCN3CCc4nc(OCC(F)(F)F)sc4CC3)CC2)cccc1=O [I′-49] | 9.23 | – | – | 6.54
Cc1nc(CC(=O)N[C@H]2CC[C@](F)(CCN3CCc4nc(OCC(F)(F)F)sc4CC3)CC2)nn1C [I′-50] | 9.64 | – | – | 5.80
Cc1ncc(CC(=O)N[C@H]2CC[C@](F)(CCN3CCc4nc(OCC(F)(F)F)sc4CC3)CC2)cn1 [I′-51] | 9.32 | – | – | 6.05
Cc1cnc(OCC(=O)N[C@H]2CC[C@](F)(CCN3CCc4nc(OCC(F)(F)F)sc4CC3)CC2)cn1 [I′-52] | 9.77 | – | – | < 5.66
Cc1cnc(OCC(=O)N[C@H]2CC[C@](F)(CCN3CCc4ccc(OCC(F)F)nc4CC3)CC2)cn1 [I′-53] | 9.49 | – | – | < 5.66
Cc1ncc(OCC(=O)N[C@H]2CC[C@H](CCN3CCc4nc(OCC(F)F)sc4CC3)CC2)cn1 [I′-54] | 9.49 | – | – | 5.80
Cc1ncc(CC(=O)N[C@H]2CC[C@H](CCN3CCc4nc(OCC(C)(F)F)sc4CC3)CC2)cn1 [I′-55] | 9.80 | – | – | 6.02
Cc1ncc(CC(=O)N[C@H]2CC[C@H](CCN3CCc4nc(OCC(F)F)sc4CC3)CC2)cn1 [I′-56] | 9.52 | – | – | 5.85
Cc1ncc(CC(=O)N[C@H]2CC[C@H](CCN3CCc4cc(F)c(OCC(F)F)nc4CC3)CC2)o1 [I′-57] | 9.28 | – | – | < 5.66
